Test results: PubChem BioAssay AID1963825 (Molecular Pharmacology Branch, DTP, NCI, 2024)

Experiment: Anticancer human tumor 997537-175-T-J1-PDC patient-derived colon adenocarcinoma cell line growth inhibition [POLQ]
Settings: 997537-175-T-J1-PDC complex spheroid viability, combination with POLQ inhibitors; second compound 0.316 µM; first compound 0.316 µM; active compounds read low
Outline: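 Growth inhibition in 3D: complex spheroids (tumor PDC, HUVEC, MSC) treated with POLQ inhibitor combinations; where Cmax unknown, highest tested concentration 10 microM, except SN-38 at 1 microM.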
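Further: luminescence signal used as a surrogate for viable cells; spheroids exposed to drugs for seven days before readout.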

Structure (SMILES)	viability, T/C [%]
COc1cc2cc(C(=O)CCC(=O)O)sc2cc1OC + Cc1cccc(N(C)C(=O)C2C(O)CCN2c2nc(C)cc(C(F)(F)F)c2C#N)c1	87.5
COc1cccc(OCCCN)c1-c1cc(Nc2cnc(C#N)cn2)n[nH]1 + COC1C(OC(N)=O)C(O)C(Oc2ccc3c(O)c(NC(=O)c4ccc(O)c(CC=C(C)C)c4)c(=O)oc3c2C)OC1(C)C	16.9

Same assay, conditions: 997537-175-T-J1-PDC complex spheroid viability, combination with POLQ inhibitors; second compound 0.316 µM; first compound 1 µM; active compounds read low

Structure (SMILES)	viability, T/C [%]
CCc1cc2c(N3CCc4c(cc(Cn5ccnc5)cc4-c4cn(C)nc4C(F)(F)F)C3=O)cc(C)nc2c(OC)n1 + Nc1ccc(C#CCN(C(=O)Cc2ncc(C(F)(F)F)cc2C(F)(F)F)c2ccc(F)cc2)nn1	96.5
COc1ccc([C@@H](O)c2cc(-c3ncnc4cc(N5CCOCC5)ccc34)c(F)cc2Cl)nn1 + Nc1ccc(C#CCN(C(=O)Cc2ncc(C(F)(F)F)cc2C(F)(F)F)c2ccc(F)cc2)nn1	99.1
COc1cc2cc(C(=O)CCC(=O)O)sc2cc1OC + Cc1cccc(N(C)C(=O)C2C(O)CCN2c2nc(C)cc(C(F)(F)F)c2C#N)c1	80.8
COc1cccc(OCCCN)c1-c1cc(Nc2cnc(C#N)cn2)n[nH]1 + COC1C(OC(N)=O)C(O)C(Oc2ccc3c(O)c(NC(=O)c4ccc(O)c(CC=C(C)C)c4)c(=O)oc3c2C)OC1(C)C	30.2

Same assay, conditions: 997537-175-T-J1-PDC complex spheroid viability, combination with POLQ inhibitors; second compound 0.316 µM; first compound 3.16 µM; active compounds read low

Structure (SMILES)	viability, T/C [%]
CCc1cc2c(N3CCc4c(cc(Cn5ccnc5)cc4-c4cn(C)nc4C(F)(F)F)C3=O)cc(C)nc2c(OC)n1 + Nc1ccc(C#CCN(C(=O)Cc2ncc(C(F)(F)F)cc2C(F)(F)F)c2ccc(F)cc2)nn1	84
COc1ccc([C@@H](O)c2cc(-c3ncnc4cc(N5CCOCC5)ccc34)c(F)cc2Cl)nn1 + Nc1ccc(C#CCN(C(=O)Cc2ncc(C(F)(F)F)cc2C(F)(F)F)c2ccc(F)cc2)nn1	96.1
COc1cc2cc(C(=O)CCC(=O)O)sc2cc1OC + Cc1cccc(N(C)C(=O)C2C(O)CCN2c2nc(C)cc(C(F)(F)F)c2C#N)c1	98.6

Same assay, conditions: 997537-175-T-J1-PDC complex spheroid viability, combination with POLQ inhibitors; second compound 0.316 µM; first compound 10 µM; active compounds read low

Structure (SMILES)	viability, T/C [%]
CCc1cc2c(N3CCc4c(cc(Cn5ccnc5)cc4-c4cn(C)nc4C(F)(F)F)C3=O)cc(C)nc2c(OC)n1 + Nc1ccc(C#CCN(C(=O)Cc2ncc(C(F)(F)F)cc2C(F)(F)F)c2ccc(F)cc2)nn1	77.5
COc1ccc([C@@H](O)c2cc(-c3ncnc4cc(N5CCOCC5)ccc34)c(F)cc2Cl)nn1 + Nc1ccc(C#CCN(C(=O)Cc2ncc(C(F)(F)F)cc2C(F)(F)F)c2ccc(F)cc2)nn1	65.6
COc1cc2cc(C(=O)CCC(=O)O)sc2cc1OC + Cc1cccc(N(C)C(=O)C2C(O)CCN2c2nc(C)cc(C(F)(F)F)c2C#N)c1	93.6

Same assay, conditions: 997537-175-T-J1-PDC complex spheroid viability, combination with POLQ inhibitors; second compound 1 µM; first compound 0.00316 µM; active compounds read low

Structure (SMILES)	viability, T/C [%]
COc1cccc(OCCCN)c1-c1cc(Nc2cnc(C#N)cn2)n[nH]1 + COC1C(OC(N)=O)C(O)C(Oc2ccc3c(O)c(NC(=O)c4ccc(O)c(CC=C(C)C)c4)c(=O)oc3c2C)OC1(C)C	105

Same assay, conditions: 997537-175-T-J1-PDC complex spheroid viability, combination with POLQ inhibitors; second compound 1 µM; first compound 0.01 µM; active compounds read low

Structure (SMILES)	viability, T/C [%]
COc1cccc(OCCCN)c1-c1cc(Nc2cnc(C#N)cn2)n[nH]1 + COC1C(OC(N)=O)C(O)C(Oc2ccc3c(O)c(NC(=O)c4ccc(O)c(CC=C(C)C)c4)c(=O)oc3c2C)OC1(C)C	88

Same assay, conditions: 997537-175-T-J1-PDC complex spheroid viability, combination with POLQ inhibitors; second compound 1 µM; first compound 0.0316 µM; active compounds read low

Structure (SMILES)	viability, T/C [%]
CCc1cc2c(N3CCc4c(cc(Cn5ccnc5)cc4-c4cn(C)nc4C(F)(F)F)C3=O)cc(C)nc2c(OC)n1 + Nc1ccc(C#CCN(C(=O)Cc2ncc(C(F)(F)F)cc2C(F)(F)F)c2ccc(F)cc2)nn1	96.4
COc1ccc([C@@H](O)c2cc(-c3ncnc4cc(N5CCOCC5)ccc34)c(F)cc2Cl)nn1 + Nc1ccc(C#CCN(C(=O)Cc2ncc(C(F)(F)F)cc2C(F)(F)F)c2ccc(F)cc2)nn1	96
COc1cc2cc(C(=O)CCC(=O)O)sc2cc1OC + Cc1cccc(N(C)C(=O)C2C(O)CCN2c2nc(C)cc(C(F)(F)F)c2C#N)c1	108
COc1cccc(OCCCN)c1-c1cc(Nc2cnc(C#N)cn2)n[nH]1 + COC1C(OC(N)=O)C(O)C(Oc2ccc3c(O)c(NC(=O)c4ccc(O)c(CC=C(C)C)c4)c(=O)oc3c2C)OC1(C)C	52.2

Same assay, conditions: 997537-175-T-J1-PDC complex spheroid viability, combination with POLQ inhibitors; second compound 1 µM; first compound 0.1 µM; active compounds read low

Structure (SMILES)	viability, T/C [%]
CCc1cc2c(N3CCc4c(cc(Cn5ccnc5)cc4-c4cn(C)nc4C(F)(F)F)C3=O)cc(C)nc2c(OC)n1 + Nc1ccc(C#CCN(C(=O)Cc2ncc(C(F)(F)F)cc2C(F)(F)F)c2ccc(F)cc2)nn1	103
COc1ccc([C@@H](O)c2cc(-c3ncnc4cc(N5CCOCC5)ccc34)c(F)cc2Cl)nn1 + Nc1ccc(C#CCN(C(=O)Cc2ncc(C(F)(F)F)cc2C(F)(F)F)c2ccc(F)cc2)nn1	98.2
COc1cc2cc(C(=O)CCC(=O)O)sc2cc1OC + Cc1cccc(N(C)C(=O)C2C(O)CCN2c2nc(C)cc(C(F)(F)F)c2C#N)c1	90.5
COc1cccc(OCCCN)c1-c1cc(Nc2cnc(C#N)cn2)n[nH]1 + COC1C(OC(N)=O)C(O)C(Oc2ccc3c(O)c(NC(=O)c4ccc(O)c(CC=C(C)C)c4)c(=O)oc3c2C)OC1(C)C	24.1

Same assay, conditions: 997537-175-T-J1-PDC complex spheroid viability, combination with POLQ inhibitors; second compound 1 µM; first compound 0.316 µM; active compounds read low

Structure (SMILES)	viability, T/C [%]
CCc1cc2c(N3CCc4c(cc(Cn5ccnc5)cc4-c4cn(C)nc4C(F)(F)F)C3=O)cc(C)nc2c(OC)n1 + Nc1ccc(C#CCN(C(=O)Cc2ncc(C(F)(F)F)cc2C(F)(F)F)c2ccc(F)cc2)nn1	84
COc1ccc([C@@H](O)c2cc(-c3ncnc4cc(N5CCOCC5)ccc34)c(F)cc2Cl)nn1 + Nc1ccc(C#CCN(C(=O)Cc2ncc(C(F)(F)F)cc2C(F)(F)F)c2ccc(F)cc2)nn1	94.7
COc1cc2cc(C(=O)CCC(=O)O)sc2cc1OC + Cc1cccc(N(C)C(=O)C2C(O)CCN2c2nc(C)cc(C(F)(F)F)c2C#N)c1	105
COc1cccc(OCCCN)c1-c1cc(Nc2cnc(C#N)cn2)n[nH]1 + COC1C(OC(N)=O)C(O)C(Oc2ccc3c(O)c(NC(=O)c4ccc(O)c(CC=C(C)C)c4)c(=O)oc3c2C)OC1(C)C	23.2

Same assay, conditions: 997537-175-T-J1-PDC complex spheroid viability, combination with POLQ inhibitors; second compound 1 µM; first compound 1 µM; active compounds read low

Structure (SMILES)	viability, T/C [%]
CCc1cc2c(N3CCc4c(cc(Cn5ccnc5)cc4-c4cn(C)nc4C(F)(F)F)C3=O)cc(C)nc2c(OC)n1 + Nc1ccc(C#CCN(C(=O)Cc2ncc(C(F)(F)F)cc2C(F)(F)F)c2ccc(F)cc2)nn1	80.9
COc1ccc([C@@H](O)c2cc(-c3ncnc4cc(N5CCOCC5)ccc34)c(F)cc2Cl)nn1 + Nc1ccc(C#CCN(C(=O)Cc2ncc(C(F)(F)F)cc2C(F)(F)F)c2ccc(F)cc2)nn1	91.6
COc1cc2cc(C(=O)CCC(=O)O)sc2cc1OC + Cc1cccc(N(C)C(=O)C2C(O)CCN2c2nc(C)cc(C(F)(F)F)c2C#N)c1	102
COc1cccc(OCCCN)c1-c1cc(Nc2cnc(C#N)cn2)n[nH]1 + COC1C(OC(N)=O)C(O)C(Oc2ccc3c(O)c(NC(=O)c4ccc(O)c(CC=C(C)C)c4)c(=O)oc3c2C)OC1(C)C	24.4

Same assay, conditions: 997537-175-T-J1-PDC complex spheroid viability, combination with POLQ inhibitors; second compound 1 µM; first compound 3.16 µM; active compounds read low

Structure (SMILES)	viability, T/C [%]
CCc1cc2c(N3CCc4c(cc(Cn5ccnc5)cc4-c4cn(C)nc4C(F)(F)F)C3=O)cc(C)nc2c(OC)n1 + Nc1ccc(C#CCN(C(=O)Cc2ncc(C(F)(F)F)cc2C(F)(F)F)c2ccc(F)cc2)nn1	78.9
COc1ccc([C@@H](O)c2cc(-c3ncnc4cc(N5CCOCC5)ccc34)c(F)cc2Cl)nn1 + Nc1ccc(C#CCN(C(=O)Cc2ncc(C(F)(F)F)cc2C(F)(F)F)c2ccc(F)cc2)nn1	79.3
COc1cc2cc(C(=O)CCC(=O)O)sc2cc1OC + Cc1cccc(N(C)C(=O)C2C(O)CCN2c2nc(C)cc(C(F)(F)F)c2C#N)c1	101

Same assay, conditions: 997537-175-T-J1-PDC complex spheroid viability, combination with POLQ inhibitors; second compound 1 µM; first compound 10 µM; active compounds read low

Structure (SMILES)	viability, T/C [%]
CCc1cc2c(N3CCc4c(cc(Cn5ccnc5)cc4-c4cn(C)nc4C(F)(F)F)C3=O)cc(C)nc2c(OC)n1 + Nc1ccc(C#CCN(C(=O)Cc2ncc(C(F)(F)F)cc2C(F)(F)F)c2ccc(F)cc2)nn1	51
COc1ccc([C@@H](O)c2cc(-c3ncnc4cc(N5CCOCC5)ccc34)c(F)cc2Cl)nn1 + Nc1ccc(C#CCN(C(=O)Cc2ncc(C(F)(F)F)cc2C(F)(F)F)c2ccc(F)cc2)nn1	94.2
COc1cc2cc(C(=O)CCC(=O)O)sc2cc1OC + Cc1cccc(N(C)C(=O)C2C(O)CCN2c2nc(C)cc(C(F)(F)F)c2C#N)c1	92.8

Same assay, conditions: 997537-175-T-J1-PDC complex spheroid viability, combination with POLQ inhibitors; second compound 3.16 µM; first compound 0.00316 µM; active compounds read low

Structure (SMILES)	viability, T/C [%]
COc1cccc(OCCCN)c1-c1cc(Nc2cnc(C#N)cn2)n[nH]1 + COC1C(OC(N)=O)C(O)C(Oc2ccc3c(O)c(NC(=O)c4ccc(O)c(CC=C(C)C)c4)c(=O)oc3c2C)OC1(C)C	104

Same assay, conditions: 997537-175-T-J1-PDC complex spheroid viability, combination with POLQ inhibitors; second compound 3.16 µM; first compound 0.01 µM; active compounds read low

Structure (SMILES)	viability, T/C [%]
COc1cccc(OCCCN)c1-c1cc(Nc2cnc(C#N)cn2)n[nH]1 + COC1C(OC(N)=O)C(O)C(Oc2ccc3c(O)c(NC(=O)c4ccc(O)c(CC=C(C)C)c4)c(=O)oc3c2C)OC1(C)C	80.7

Same assay, conditions: 997537-175-T-J1-PDC complex spheroid viability, combination with POLQ inhibitors; second compound 3.16 µM; first compound 0.0316 µM; active compounds read low

Structure (SMILES)	viability, T/C [%]
CCc1cc2c(N3CCc4c(cc(Cn5ccnc5)cc4-c4cn(C)nc4C(F)(F)F)C3=O)cc(C)nc2c(OC)n1 + Nc1ccc(C#CCN(C(=O)Cc2ncc(C(F)(F)F)cc2C(F)(F)F)c2ccc(F)cc2)nn1	102
COc1ccc([C@@H](O)c2cc(-c3ncnc4cc(N5CCOCC5)ccc34)c(F)cc2Cl)nn1 + Nc1ccc(C#CCN(C(=O)Cc2ncc(C(F)(F)F)cc2C(F)(F)F)c2ccc(F)cc2)nn1	107
COc1cc2cc(C(=O)CCC(=O)O)sc2cc1OC + Cc1cccc(N(C)C(=O)C2C(O)CCN2c2nc(C)cc(C(F)(F)F)c2C#N)c1	94.5
COc1cccc(OCCCN)c1-c1cc(Nc2cnc(C#N)cn2)n[nH]1 + COC1C(OC(N)=O)C(O)C(Oc2ccc3c(O)c(NC(=O)c4ccc(O)c(CC=C(C)C)c4)c(=O)oc3c2C)OC1(C)C	55.8
